Assay results reported in patent publication US20080293698A1, “Methods and Compositions for Treating Arg” (priority 2005, published 2008).
Where “and” joins values, the source holds several entries; their conditions need not be identical. Equal values may be shown once. Where a name gives a salt, the structure may show the parent alone.

Experiments:
[1] = tested on: human subjects; assay: 4-HPA and 4-HPA lactone administered to human subjects (Example 53); conditions: for effects experienced by the subjects: at equivalent doses of GHB toxicity or sleep would have occurred
[2] = tested on: GHB receptor; conditions: reported in United States patent application 20020132846; cited from earlier work
[3] = tested on: patient with a sleeping disorder; assay: Case report: patient with a sleeping disorder treated with alprazolam, zolpidem, gabapentin and NaGHB (Example 86); type: in vivo, human
Protocol: Overnight polysomnography had shown minimal obstructive sleep apnea with 2 apneas per hour of sleep. The patient was placed on a regimen of the Class III agent alprazolam, the Class IV agent zolpidem, the Class V agent gabapentin, and the Class II agent the sodium salt of gamma-hydroxyl butyric acid (GHB), which were administered prior to sleep for the treatment of sleeping disorders. The initial dose of GHB was prescribed as 2.25 grams prior to sleep and repeat dose of 2.25 grams to be taken 2.5 to 4 hours after sleep onset.
At a dose of 3 grams prior to sleep and a second dose upon awakening, the patient was eating only one to two small meals per day. Their maximum previous weight had been 169 lbs and their baseline weight was 159 pounds. They lost weight down to 145 lbs and looked gaunt. They believed that the GHB had suppressed their appetite and consulted an endocrinologist, who did a thorough medical evaluation including an am cortisol, a comprehensive chemistry profile, a CBC, and thyroid studies, all of which were normal. The patient discontinued the GHB and their appetite returned within two days. Over roughly five months, they then gained weight up to 195 lbs and their weight remained stable.

[4] = Chemical stability of GHB as a function of pH (cyclization to GBL); type: physicochemical
[5] = tested on: patients; conditions: therapeutic doses, GHB as lone agent; cited from earlier work
[6] = tested on: patient with ARG; assay: Case reports: patients with ARG treated with GABAnergic agents prior to sleep; type: in vivo, human
Source text: The patient was then switched to monotherapy using only NaGHB 4.5 grams prior to the intended sleep time and a second dose of 4.5 grams four hours after the first. […] The patient was switched back to treatment with multiple GABAnergic agents and again had dramatic reduction in fatigue. On a scale from 0 to 10 where 10 is the most tired, the patient rated the fatigue at 10 without treatment, 3 to 4 with treatment on multiple GABAnergic agents, and 10 on monotherapy with NaGHB.
A patient with ARG was treated with the Class IV agent zolpidem 10 mg, The Class III agent alprazolam 2 mg, the Class V agent gabapentin 200 mg, and the Class II agent sodium salt of gamma-hydroxyl butyrate 5.25 grams prior to sleep. The patient was treated chronically on a nightly basis. Sometimes, according to the patient's judgement, 3.75 grams of the sodium salt of gamma-hydroxyl butyric acid was consumed upon awakening, which usually was about six hours after the first dose of medications.
In another example a patient with ARG was given the Class I agent 660 ml red wine 13.5% alcohol by volume, the Class III agent alprazolam 3 mg, the Class V agent gabapentin 300 mg, and the Class IV agent 10 mg zolpidem. Five hours later, the patient was awoken and given the Class II agent the sodium salt of gamma-hydroxyl butyric acid 3 grams.
In another example a patient with ARG was treated with the Class I agent 660 ml red wine 13.5% alcohol by volume, the Class I agent liqeur 30% alcohol by volume 200 ml, the Class III agent alprazolam 2 mg, the […] 200 mg, and the Class II agent the sodium salt of gamma-hydroxyl butyric acid 4 grams prior to sleep.
A patient with acquired resistance to GABAnergic agents was treated with the Class III agent alprazolam 2 mg, the Class IV agent zolpidem 10 mg, the Class V agent gabapentin 200 mg, and the Class II agent NaGHB 7 grams. […] 7 grams NaGHB as a single dose is a large dose, which may be too toxic for some patients.
A patient with acquired resistance to GABAnergic agents was treated with the Class I agent red wine 660 ml 13.5% alcohol by volume, then the Class III agent alprazolam 3 mg, the Class V agent gabapentin 300 mg, the Class IV agent zolpidem 10 mg, and the Class II agent NaGHB 9 grams. 4 hours after sleep onset the patient awoke in a neighboring room in a pool of vomitus of partially digested wine. The patient was lucid and had mild nausea. The patient went back to sleep in bed for an additional 2 hours and was able to work the next day. […] The combination of red wine and such large doses of GHB are not typically recommended by the inventor and can be fatal.
A patient with ARG was given the Class III agent alprazolam 7 mg, the Class IV agent zolpidem 10 mg, and the Class V agent gabapentin 300 mg prior to sleep. […] The dose of alprazolam may be reduced by adding a Class I or Class II agent to the regimen.
A patient with ARG who had minimal obstructive sleep apnea was chronically treated with the Class I agent red wine about 200 to 1500 ml 13.5% alcohol by volume, the Class IV agent zolpidem 10 mg, the Class III agent alprazolam 3 mg, and the Class V agent gabapentin 300 mg prior to sleep. Sufficient wine was consumed to produce moderate to strong sleepiness and then the other GABAminergic medications were consumed. When the volume of wine on a particular night required to induce strong sleepiness was inconvenient, the patient quickly drank liqeur 30% alcohol by volume, typically about 160 ml, in order to induce strong sleepiness.
A patient with ARG who had minimal obstructive sleep apnea was chronically treated with the Class I agent red wine about 660 to 1500 ml about 13% alcohol by volume, the Class IV agent zolpidem 10 mg, the Class III agent alprazolam 3 mg, and the Class V agent gabapentin 300 mg prior to sleep. Sufficient wine was consumed to produce moderate to strong sleepiness and then the other GABAnergic medications were consumed. […]

[7] = pH of NaGHB solution; type: physicochemical; conditions: 240 mg per ml
Protocol: The pH of NaGHB at 240 mg per ml is approximately 9.5, at which neither pathogenic nor non-pathogenic organisms grow. As the concentration of NaGHB is increased, the pH is yet higher. […] Concentrated NaGHB is highly toxic regardless of pH and must be diluted prior to consumption. The pH of NaGHB at 500 mg/ml drops rapidly into the physiologic range upon dilution. Highly concentrated GBL and 1,4-butanediol are known to be resistant to microbial growth, require no special storage procedures, and likewise must be diluted prior to consumption, typically to 5% to 30% solutions but more preferably 5% to 20%.

[8] = tested on: patients with fibromyalgia or chronic fatigue syndrome; conditions: cited from earlier work
[9] = tested on: patients with fibromyalgia; conditions: 3 grams NaGHB at bedtime and a second dose about 4 h later; cited from earlier work

## CC1CCC(=O)O1 (stereo not drawn) [4-HPA lactone, 4-hydroxyl pentanoic acid lactone]
[1]
  toxicity compared with GHB: less toxic than GHB
  effects experienced by the subjects: relaxing effects
[2]
  binding to the GHB receptor: bind the GHB receptor

## CC(O)CCC(=O)O (stereo not drawn) [Example 4-HPA, 4-hydroxyl pentanoic acid]
[1]
  toxicity compared with GHB: less toxic than GHB
  effects experienced by the subjects: relaxing effects

## O=C(O)CCCO [GHB, gamma hydroxyl butyric acid]
[3]; 3.75 grams upon awakening
  sleep induction by the second dose of GHB: usually did not induce sleep
[3]; baseline weight 159 pounds, 3 grams prior to sleep and a second dose upon awakening
  body weight on treatment: 145 lbs
[3]; during weight loss on GHB
  medical evaluation (am cortisol, comprehensive chemistry profile, CBC, thyroid studies): normal
[3]; human, in vivo
  time to return of appetite after discontinuing GHB: two
[3]; within one week of beginning to take the GHB
  appetite: marked decrease in appetite
[4]
  pH at which gamma-butyryl lactone (cyclized form) begins to form: ≤ 6
[5]
  duration of the sleep inducing effect: 2 to 3 h and 2 to 4 h
[6]; 3.75 grams upon awakening, about six hours after the first dose of medications
  sleep induction by the second dose of GHB: usually did not induce sleep

## O=C(O)CCCO [NaGHB, sodium salt of gamma-hydroxyl butyric acid]
[7]
  pH of the solution: approximately 9.5
[8]; 2.25 grams NaGHB at bedtime and again four hours later, in some instances
  sleep obtained per dose: 2 to 3 h
[8]; pilot open label trial, quoted from document C
  effect in patients diagnosed with chronic fatigue syndrome: no effect
[9]
  patients in the treatment arm who withdrew due to side effects: Six of 24
[6]; NaGHB 4.5 grams twice per sleep period, no other GABAnergic agent
  improvement on monotherapy: no improvement
[6]; monotherapy, NaGHB 4.5 grams prior to the intended sleep time
  sleep induction by the first dose: did not induce sleep at all
[6]; monotherapy, second dose of 4.5 grams four hours after the first
  duration of sleep induced by the second dose: two
[6]; patient with ARG on the regimen
  side effects / toxicity: state of near stupor
[6]; scale from 0 to 10 where 10 is the most tired, 10 without treatment
  fatigue rated by the patient: 10

## cyanocobalamin
[6]; 2000 mcg IM about every three days, in addition to multiple GABAnergic agents
  fatigue on the increased dose of cyanocobalamin: mild decrease in fatigue
[6]; cyanocobalamin 500 mcg IM once, 'rotate' 5 mg orally, multivitamin containing thiamine 1.5 mg, patient on Example 90a regimen
  mouth sores under vitamin treatment: resolved
